The text below walks through data of US8475814B2 (priority 2003, dated 2013).

A short description of data set [1]: Example 1: percutaneous [3H]-4-hydroxy tamoxifen delivery, radioactivity in breast tissue and blood of breast cancer patients. In kind it is in vivo, human.
Method: The patients received [^3H]-labeled drug applied directly on the affected breasts at specified intervals ranging from 12 hours to 7 days before surgery to excise diseased tissue. Breast tissue from three regions: the tumor, tissue immediately surrounding the tumor, and normal tissue, was excised and immediately frozen in liquid nitrogen. Additionally, plasma and urine samples were obtained at scheduled intervals and frozen until analysis.
The nature of data set [2]: Example 3: plasma pharmacokinetics of 4-hydroxy tamoxifen gel in healthy premenopausal women. The note with it: for t1/2 (Range): 57 mg/100 g gel, last administration. The class given is in vivo, human.
Method: Each participant applied the gel daily for the duration of two menstrual cycles.
At the end of a menstrual cycle, each patient received a single dose, after which serial blood samples were collected at 0, 0.5, 1, 1.5, 2, 3, 4, 6, 12, 18, 24, 36, 48, and 72 hours.
On the first day of the following menstruation, treatment, which consisted of daily application of the gel over two menstrual cycles, began. Blood samples were collected 24 hours following the morning application of gel on days 7, 20 and 25 of the first and second cycles. On the last day of administration, day 25 of the second menstrual cycle, serial blood samples were collected prior to application and at 0.5, 1, 1.5, 2, 3, 4, 6, 12, 18, 24, 36, 48, and 72 hours after application of the gel.
Data set [3] in a line: Example 4: 4-OHT assay in plasma, tumor tissue and normal tissue (GC-MS NICI). The class given is in vivo, human. The note with it: 2-3 weeks. The text has this: Patients were scheduled for tumor resection surgery with curative intent between day 15 and day 22 after the start of treatment. On the day prior to surgery, a blood sample was also obtained for determination of 4-OHT concentrations. On the day of surgery, patients were reassessed for concomitant therapy, concomitant conditions, hematology, biochemistry, plasma 4-OHT, estrone (E1), and estradiol (E2) concentrations.
Concentrations of 4-OHT in plasma, tumor tissue, and normal tissue were performed using Gas Chromatography (GC) combined with Mass Spectrometry (MS) used in the Negative Ion Chemical Ionization-mode (NICI) (Girault, 1993). The quantification limits of the method were 5 pg/ml for the plasma and 50 pg/g for tissue samples respectively. Tumor extracts and normal breast tissue obtained at the time of surgery (after treatment) were stored in liquid nitrogen until subsequent assay of 4-OHT.

In data set [4] the test system is estrogen receptors. The note with it: in vitro; cited from earlier work.
In data set [5] the test system is Ki67 antigen (tumor tissue proliferation index). Briefly: Example 4: Ki67 labeling index in breast tumor tissue. The following applies: for mean Ki-67 LI scores after treatment compared to the untreated group: adjusted for baseline, P=0.0054. In kind it is in vivo, human.
From the text: Participants in the study were postmenopausal women diagnosed with estrogen receptor positive invasive breast cancer, as determined by Trucut biopsy. Criteria for enrollment included age >50 years, histologically confirmed T1 or T2 estrogen receptor positive primary breast cancer, and fit for surgery within 1 month of the biopsy. Patients with inflammatory cancer, known metastasis or lymph node involvement were excluded as were patients with previous radiotherapy or chemotherapy and ongoing hormone replacement therapy (a minimum washout period of 8 days was observed before the Tru-cut biopsy). Other exclusion criteria were a history of thrombophlebitis requiring anticoagulant treatment, retinopathy, cutaneous allergy to alcohol or mammary dermatitis contraindicating the application of a gel.
Patients were scheduled for tumor resection surgery with curative intent between day 15 and day 22 after the start of treatment. On the day prior to surgery, a blood sample was also obtained for determination of 4-OHT concentrations. […]
Ki67 and Proliferating Cell Nuclear Antigen (PCNA) labeling indices (LI) were assessed on paraffin embedded sections of the pre- and post-treatment tissue specimens. The Ki67 antigen was assessed using the monoclonal antibody MIB 1 (DAKO, Denmark) as used in routine conditions in pathology. […] Six serial sections were analyzed per case in order to standardize sampling. […] For each preparation, optical density (OD) thresholds were determined using real microscopic images of the analyzed field as reference. […] Twenty fields were analyzed for each section. Stained nuclear surface was determined (segmentation and thresholding) and a LI scored (stained cells/counterstained elements). […] Control of immunostaining quantitative analysis and reproducibility of the procedure were performed: —by comparison to iterative measurements done on the same preparations, —by comparison to measurements compiled on six sequential sections of the same specimen. […] Results were expressed as LI.
Data set [6] concerns the target T1, estrone sulphatase (Homo sapiens, UniProt P08842).
T1 construct: estrone sulphatase activity in mammary cancer cell lines
T1 sequence (P08842 22-583): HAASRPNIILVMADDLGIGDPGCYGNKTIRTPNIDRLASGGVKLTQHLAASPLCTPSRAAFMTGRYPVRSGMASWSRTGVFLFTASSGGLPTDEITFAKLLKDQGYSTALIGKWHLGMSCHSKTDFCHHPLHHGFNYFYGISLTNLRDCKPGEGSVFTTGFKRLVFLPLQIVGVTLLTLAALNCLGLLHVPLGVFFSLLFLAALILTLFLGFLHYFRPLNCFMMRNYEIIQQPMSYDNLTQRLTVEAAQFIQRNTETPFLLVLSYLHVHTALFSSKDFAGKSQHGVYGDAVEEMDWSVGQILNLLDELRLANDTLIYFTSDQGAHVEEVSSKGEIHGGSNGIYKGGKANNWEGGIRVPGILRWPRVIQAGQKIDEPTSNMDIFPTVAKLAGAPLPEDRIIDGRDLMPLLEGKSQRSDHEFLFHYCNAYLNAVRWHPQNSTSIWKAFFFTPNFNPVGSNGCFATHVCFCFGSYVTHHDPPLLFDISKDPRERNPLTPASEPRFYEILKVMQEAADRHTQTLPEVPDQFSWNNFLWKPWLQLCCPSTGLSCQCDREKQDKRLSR
The following applies: mammary cancer cell lines; cited from earlier work.

Data set [7] relates to p53(−) normal human mammary epithelial cells. The note with it: cited from earlier work.
The conditions of data set [8]: cited from earlier work.
[9] abbreviates: 12 hr after percutaneous Z-[3H]-4-hydroxy tamoxifen.
Where [10] appears, read: 24 hours after percutaneous [3H]-4-hydroxy tamoxifen.
Where [11] appears, read: 24 hr after percutaneous Z-[3H]-4-hydroxy tamoxifen.
[12] abbreviates: 36 hr after percutaneous Z-[3H]-4-hydroxy tamoxifen.
The mark [13] stands for this setting: Day 4 after percutaneous Z-[3H]-4-hydroxy tamoxifen.
Setting [14] is: Day 7 after percutaneous Z-[3H]-4-hydroxy tamoxifen.

Regarding `CCC(=C(c1ccc(O)cc1)c1ccc(OCCN(C)C)cc1)c1ccccc1` (single isomer, unassigned) [E isomer], the “% Metabolites in Breast Tissue” value in data set [1] (human, in vivo) was 33%.

On to `CCC(=C(c1ccc(O)cc1)c1ccc(OCCN(C)C)cc1)c1ccccc1` [4-hydroxy tamoxifen, 1-[4-(2-N-dimethylaminoethoxy)phenyl]-1-(4-hydroxyphenyl)-2-phenylbut-1-ene], for which, in data set [2] (1 mg/day), the “t1/2 (Range)” value is “(58-118) hr”. Also, the “t1/2 (Range)” value in data set [2] (2 mg/day) is “(49-101) hr”. In addition, the “plasma concentrations after the last gel application” value in data set [2] (72 hours after the last gel application) is “remained detectable”. Further, the “plasma concentrations of 4-hydroxy tamoxifen after a single dose” value in data set [2] (single 0.5 mg dose) was “did not produce detectable plasma concentrations”. For the same compound, the “patients with detectable plasma concentrations (>5 pg/mL)” value in data set [2] (single dose of 1 mg) is reported as 6 of 12. In addition, the “plasma concentrations of 4-hydroxy tamoxifen versus typical estradiol concentrations” value in data set [2] (topical application, 0.5-2 mg/day) is less than 0.08 ng/mL. Moreover, in data set [3] (gel 0.5 mg/d), the “4-OHT concentration in Tumor, Median (min:max)” value (from here on “4-OHT concentration in Tumor”) was determined as 687 pg/g. Besides, the “4-OHT concentration in Tumor” value in data set [3] (gel 1.0 mg/d) was 1377 pg/g. The “4-OHT concentration in Tumor” value in data set [3] (gel 2.0 mg/d) is 1698 pg/g. Further, in data set [1] (human, in vivo), the “% of radioactivity in blood” value turned out to be 68%, the “radioactivity administered that showed in the blood” value is given as 0.5%, the “retention in the breast” value is on record as “approximately 4 days” and the “time of plateau of radioactivity in blood” value is 4 to 6 days. In data set [4], the “potency as measured by binding affinity to estrogen receptors, compared with tamoxifen” value is listed as “more potency than tamoxifen”. Further, the “dose dependence of mean Ki-67 LI score after treatment” value in data set [5] (0.5, 1.0, 2.0 mg/d) is given as “dose-dependent”. The “mean Ki-67 LI scores after treatment compared to the untreated group” value in data set [5] was “significantly lower”. For the same compound, in data set [6], the “effect on estrone sulphatase activity” value is on record as “significant inhibitory effect”.

As to `CCC(=C(c1ccc(O)cc1)c1ccc(O)cc1)c1ccccc1` [Bisphenol], the “% Metabolites in Breast Tissue” value in data set [1] (setting [9]) was found to be 1%; in data set [1] (setting [11]), 2%; in data set [1] (setting [12]), 3%; in data set [1] (setting [13]) it was 8%; in data set [1] (setting [14]), 8%. In addition, the “% of radioactivity in blood” value in data set [1] (setting [10]) is 11%.

For the compound `CCC(=C(c1ccc(O)cc1)c1ccc(OCCNC)cc1)c1ccccc1` [N-Desmethyl-4-Hydroxy Tamoxifen], the “% Metabolites in Breast Tissue” value in data set [1] (setting [9]) stood at 2%; in data set [1] (setting [11]), 4%; in data set [1] (setting [12]) it was 14%; in data set [1] (setting [13]) it was 20%; in data set [1] (setting [14]) it was 16%. Moreover, in data set [1] (setting [10]), the “% of radioactivity in blood” value is on record as 18%.

For the compound `CC/C(=C(\c1ccc(O)cc1)c1ccc(OCCN(C)C)cc1)c1ccccc1` [Z-4-hydroxy tamoxifen], the “% Metabolites in Breast Tissue” value in data set [1] (human, in vivo) amounted to 32%.

For the compound `CC/C(=C(\c1ccccc1)c1ccc(OCCN(C)C)cc1)c1ccccc1` [tamoxifen, reference compound], the “% Metabolites in Breast Tissue” value was less than 1% in data set [1] (setting [13]) and 2% in data set [1] (setting [14]). Further, the “time of plateau of radioactivity in blood” value in data set [1] (percutaneous application) is 2 days. In data set [1] (percutaneous application to the affected breast), the “retention in the breast” value was “shorter and far weaker”. For the same compound, the initiation of apoptosis result in data set [7] is “initiates apoptosis”. Besides, the “mean Ki-67 LI scores after treatment compared to the untreated group” value in data set [5] was “significantly lower”. In addition, the rat liver carcinogenicity result in data set [8] was “potent rat liver carcinogen”. In data set [6], the “effect on estrone sulphatase activity” value is recorded as “little or no effect”.
